Measured values taken from publication PMC9036627, “Global update on the susceptibility of human influenza viruses to neuraminidase inhibitors, 2013–2014” (Antiviral research, 2015).

Legend:
[1] = system: neuraminidase (NA) of A(H1N1)pdm09 viruses; format: biochemical, influenza A(H1N1)pdm09 virus
[2] = system: neuraminidase (NA) of B/Yamagata-lineage viruses; format: biochemical, influenza B/Yamagata-lineage virus
[3] = system: neuraminidase (NA) of B/Victoria-lineage viruses; format: biochemical, influenza B/Victoria-lineage virus
[4] = system: former seasonal A(H1N1) H275Y virus; conditions: ref Kawai et al., 2009, Dharan et al., 2010, Matsuzaki et al., Saito et al.; cited from earlier work
[5] = system: former seasonal A(H1N1) H275Y virus; conditions: ref Kawai et al., 2009, Dharan et al., 2010, Matsuzaki et al., Saito et al.; cited from earlier work; remark: listed apart in the source

[H]/N=C(\N)N[C@H]1C=C(C(=O)O)O[C@@H]([C@H](OC)[C@H](O)CO)[C@@H]1NC(C)=O [Laninamivir, laninamivir]
Included in phenotypic analysis: inhibition category (HRI/RI/NI) [1]: RI (key: NI < 10-fold; RI 10 to 100-fold; HRI > 100-fold) | effect of NA substitution on susceptibility [1]: little or no effect | effect of NA substitution on susceptibility [2]: no effect | inhibition category (HRI/RI/NI) [3]: HRI (key: NI < 5-fold; RI 5 to 50-fold; HRI > 50-fold)

CCOC(=O)C1=C[C@@H](OC(CC)CC)[C@H](NC(C)=O)[C@@H](N)C1 [Oseltamivir, oseltamivir]
inhibition category in vitro [4]: HRI (HRI > 100-fold) | clinical resistance [5]: clinically resistant | inhibition category (HRI/RI/NI) [2]: RI (key: NI < 5-fold; RI 5 to 50-fold; HRI > 50-fold) | inhibition category (HRI/RI/NI) [3]: RI (key: NI < 5-fold; RI 5 to 50-fold; HRI > 50-fold)

CCC(CC)[C@H](NC(C)=O)[C@@H]1[C@H](O)[C@@H](C(=O)O)C[C@H]1N=C(N)N [Peramivir, peramivir]
inhibition category in vitro [4]: HRI (HRI > 100-fold) | inhibition category (HRI/RI/NI) [3]: HRI (key: NI < 5-fold; RI 5 to 50-fold; HRI > 50-fold)

CC(=O)N[C@H]1[C@H]([C@H](O)[C@H](O)CO)OC(C(=O)O)=C[C@@H]1N=C(N)N [Zanamivir, zanamivir]
effect of NA substitution on susceptibility [1]: little or no effect | effect of NA substitution on susceptibility [2]: no effect | inhibition category (HRI/RI/NI) [3]: HRI (key: NI < 5-fold; RI 5 to 50-fold; HRI > 50-fold)
